Data taken from US8642541B2 (priority 2008, dated 2014).
“Also recorded” adds a separate entry of the source.

Key:
human Glucagon-R = target: T1, human Glucagon-R (Homo sapiens, UniProt P47871); assay: Glucagon receptor efficacy assay (cAMP, HEK293 cells); type: cell-based; conditions: read-out: GLUR EC50
T1 construct: expressed in transfected cells
Description: The 5′-end primers additionally encoded a near Kozak consensus sequence to ensure efficient translation.
48 hr after transfection cells were seeded for limited dilution cloning and selected with 1 mg/ml G418 in the culture medium.
On the day of analysis, growth medium was removed and the cells washed once with 200 μl Tyrode buffer. Cells were incubated in 100 μl Tyrode buffer containing increasing concentrations of test peptides, 100 μM IBMX, and 6 mM glucose for 15 min at 37° C. The reaction was stopped by addition of 25 μl 0.5 M HCl and incubated on ice for 60 min. The cAMP content was estimated using the FlashPlate® cAMP kit from Perkin-Elmer.

[1] = test system: primary rat adipocyte cultures; type: cell-based
Description: Adipocytes were isolated from epididymal fat dissected from normal young adult Sprague-Dawley rats. The fat lumps were minced, incubated and shaken (220 rpm) with collagenase (1 mg/ml) in Krebs-Ringer buffer containing 4% BSA (KRB-BSA) for 60 minutes at 37° C. The suspension was filtered through a nylon filter (160 μm pore size) and the filtrate centrifuged at 200×g for 3 min. The subjacent medium beneath the upper floating layer of adipocytes was removed with a Pasteur-pipette. The adipocytes were washed 3 times in KRB-BSA buffer by re-suspension and centrifugation. The adipocytes were re-suspended in KRB-BSA, mixed, incubated in and shaken with test compounds in 96-deep well plates (50,000 cells/well) in a total volume of 1 ml at 37° C. for 60 min. The plates were placed on ice for at least 10 min after incubation followed by centrifugation at 200×g for 3 min. 300 μl of the buffer beneath the adipocyte layer were collected in a 96-deep well plate. This process was repeated two more times and the 3 extracts collected from each culture pooled together. The glycerol formed by the lipolysis in the adipocyte cultures was measured by adding free glycerol reagent (200 μl) to aliquots (25 μl) of adipocyte extract, incubate at room temperature for 15 min, and measure the absorbance at 540 nm.

[2] = Oral glucose tolerance test (OGTT) in db/db mice; type: in vivo; conditions: 45 nmol/kg i.p.
Description: The animals were kept fasted during the experiment to prevent confounding food intake. Fifteen minutes later an oral dose of glucose (1 g/kg in 5 ml/kg) was given and BG levels were measured at t=30 min, t=60 min, t=120 min and t=240 min.
Difference from baseline (t=0) was calculated for each time point and AUC0-240 min values were determined. Statistical analyses of AUC values by one-way ANOVA and Dunnetts post-hoc analyses were performed with GraphPad Prism version 4. Differences were considered significant at the p<0.05 level.

[3] = 28 day treatment of diet induced obese (DIO) mice: body weight gain; type: in vivo
Description: Four weeks before drug treatments, C57Bl/6 male mice (7 weeks) (10-12 animals in each group) were put on high fat diet (HFD) and their day-night cycle reversed with lights On/Off at 2000/0800 hour. Experimental animals were conditioned to treatment by daily injections (s.c.) of 0.1 ml vehicle and acclimatized to handling by weighing them twice a week one week before start of drug administrations. The day before start of experiment, mice were stratified into groups with similar body weight (BW) and the next day groups of stratified mice were treated (b.i.d.; s.c.) with ZP2653 (SEQ ID NO: 4) (500 nmol/kg)), or vehicle (PBS, pH 7.4, 2.5 μl/g BW). A non-obese control group maintained on regular chow was treated with vehicle in the same treatment regime as the DIO groups. Body weights were recorded daily and used to administer the body weight-corrected doses of peptide throughout the study. Animals were fasted overnight before sacrifice. An eye blood sample (0.6 ml EDTA) was obtained the following morning immediately before cervical dislocation. Blood plasma samples were stored at −80° C. until analyzed for cholesterol, HDL and LDL using commercially available kits. Body weight gains throughout the treatment period were calculated for each animal by subtracting its weight at the initiation of treatment. […]

[4] = 28 day treatment of DIO mice: plasma cholesterol, HDL and LDL; type: in vivo; conditions: 4 weeks b.i.d., compared to vehicle
Description: Four weeks before drug treatments, C57Bl/6 male mice (7 weeks) (10-12 animals in each group) were put on high fat diet (HFD) and their day-night cycle reversed with lights On/Off at 2000/0800 hour. Experimental animals were conditioned to treatment by daily injections (s.c.) of 0.1 ml vehicle and acclimatized to handling by weighing them twice a week one week before start of drug administrations. […] A non-obese control group maintained on regular chow was treated with vehicle in the same treatment regime as the DIO groups. Body weights were recorded daily and used to administer the body weight-corrected doses of peptide throughout the study. Animals were fasted overnight before sacrifice. An eye blood sample (0.6 ml EDTA) was obtained the following morning immediately before cervical dislocation. Blood plasma samples were stored at −80° C. until analyzed for cholesterol, HDL and LDL using commercially available kits. Body weight gains throughout the treatment period were calculated for each animal by subtracting its weight at the initiation of treatment.
Statistical analyses of data on body weight gain and cholesterols among treatments by 2-way ANOVA with repeated measures and Bonferoni post-hoc analyses were performed with GraphPad Prism version 4. Differences were considered significant at the p<0.05 level.

T1 sequence (P47871 26-477): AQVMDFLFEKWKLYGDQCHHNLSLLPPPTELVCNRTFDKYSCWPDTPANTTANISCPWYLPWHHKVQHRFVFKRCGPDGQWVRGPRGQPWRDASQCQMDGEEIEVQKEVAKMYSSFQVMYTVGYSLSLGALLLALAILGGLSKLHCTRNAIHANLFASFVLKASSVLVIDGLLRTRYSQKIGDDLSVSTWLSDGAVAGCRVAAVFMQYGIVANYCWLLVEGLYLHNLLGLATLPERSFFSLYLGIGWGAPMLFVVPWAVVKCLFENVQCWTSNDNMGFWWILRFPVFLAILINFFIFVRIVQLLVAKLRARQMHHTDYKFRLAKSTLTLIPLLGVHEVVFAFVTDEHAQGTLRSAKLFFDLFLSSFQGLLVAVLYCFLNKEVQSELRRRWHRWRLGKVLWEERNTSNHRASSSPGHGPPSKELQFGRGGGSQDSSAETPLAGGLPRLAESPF

| EC50 (human Glucagon-R) [nM] | EC50 [1] [nM] | Substance | lipolysis potency relative to OXM ([1]; primary adipocyte cultures) [times] | lipolysis potency relative to glucagon ([1]; primary adipocyte cultures) | improvement of glucose tolerance (decrease in Area Under the curve (AUC)) ([2]; AUC0-240 min) [%] | effect on oral glucose tolerance ([2]; OGTT) | effect on body weight gain ([3]; DIO mice on HFD, 500 nmol/kg b.i.d. s.c., 28 days, versus vehicle) | effect on fat deposition ([3]; DIO mice, 4 weeks treatment) | effect on HDL/LDL ratios [4] | effect on concentrations of LDL cholesterol [4] |
| --- | --- | --- | --- | --- | --- | --- | --- | --- | --- | --- |
| 0.1 |  | H-HSQGTFTSDYSLYLDSRRAKDFIEWLERA-NH2 [Compound L006-0050] |  |  |  |  |  |  |  |  |
|  | 3.6 | H-HSQGTFTSDYSLYLDSRRAKDFIEWLESA-NH2 [ZP2653] | 50 | equipotent to glucagon | 39.5 | significantly improved glucose tolerance | decreased body weight gain to a level similar to that observed with chow feeding; also recorded: decreased body weight gain significantly | significantly decreased fat deposition | significant | significant effect |
